The structures appear in SMILES notation. Bounds are passed on as bounds.

The subject of one experiment is A427 cells. Description: Cell Titer Glo viability assay, A427 cells. The conditions noted are these: Homo sapiens, A-427, 144 h, absolute EC50. In kind it is cell-based. How it is done:
(§1) Each of an ACHN renal cell carcinoma cell line (ATCC) and a DAOY medulloblastoma cell line, and an A427 lung cancer line were cultured in Minimum Essential Medium Eagle supplemented with 10% fetal calf serum (Sigma), 1% Penicillin-Streptomycin and 10 mM HEPES buffer (HyClone). Cell cultures were kept in a humidified incubator at 37 °C and 5% CO2. Cells were routinely tested for Mycoplasma contamination.
(§2) ACHN cells, DAOY cells, or A427 cells were seeded at a density of 400, 250, or 500 cells per well respectively, in tissue culture treated 384 well plates (Corning Costar). After overnight incubation, cells were treated with drugs at concentrations ranging from 17 to 10 000 nM. Viability compared to untreated control was assessed at 144 h using Cell Titer Glo assay 2.0 (Promega). […] “NT” means the compounds was not tested in the indicated cells.
For orientation: ATP-based viability assays read luminescence as a measure of living cells.

A further experiment has as its system DAOY cells. Kind of experiment: Cell Titer Glo viability assay, DAOY cells. In kind it is cell-based. The conditions noted are these: Homo sapiens, 144 h, absolute EC50. The method, then:
as §1, §2

In experiment [1] the target is T1, Myt1 kinase (CDK1 Thr14 phosphorylation in DAOY medulloblastoma cells) (Homo sapiens, UniProt Q99640).
T1 construct: pCDK1 Thr14 AlphaLISA read-out
T1 sequence (Q99640 1-499): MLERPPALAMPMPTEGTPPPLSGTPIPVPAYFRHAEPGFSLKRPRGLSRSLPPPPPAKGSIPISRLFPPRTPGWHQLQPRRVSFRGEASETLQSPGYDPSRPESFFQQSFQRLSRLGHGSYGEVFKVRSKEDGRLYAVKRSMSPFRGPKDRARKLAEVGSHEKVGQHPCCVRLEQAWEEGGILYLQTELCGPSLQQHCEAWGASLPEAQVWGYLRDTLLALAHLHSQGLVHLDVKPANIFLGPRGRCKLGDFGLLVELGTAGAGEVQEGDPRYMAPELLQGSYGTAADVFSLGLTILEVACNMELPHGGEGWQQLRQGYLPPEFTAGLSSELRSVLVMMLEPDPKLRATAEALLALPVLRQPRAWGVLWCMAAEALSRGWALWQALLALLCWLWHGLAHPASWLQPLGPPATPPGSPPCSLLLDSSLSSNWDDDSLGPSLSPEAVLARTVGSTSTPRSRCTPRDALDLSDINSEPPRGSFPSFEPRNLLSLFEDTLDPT
Kind of experiment: AlphaLISA assay, Myt1 kinase target engagement (phospho-CDK1 Thr14) in DAOY cells. It is filed as cell-based. The conditions noted are these: 4 h treatment, read-out: CDK1 Thr14 Phosphorylation EC50. In short, it runs like this: (§3)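 Cells seeded at 10,000 (DAOY) or 20,000 (ACHN) per well, treated 24 h later for 4 h with compound at 7–5000 nM. Lysates analysed by AlphaLISA SureFire Ultra phospho-CDK1 (Thr14) with donor/acceptor beads; EC50 from dose-response curves.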

Experiment [2] concerns the target T2, Myt1 kinase (recombinant PMYT-1) (Homo sapiens, UniProt Q99640).
T2 construct: full length PMYT-1 was expressed by baculovirus in insect cells; purchased Invitrogen A30984; host or cells: insect cells (baculovirus)
T2 sequence (Q99640 1-499): T1 sequence (Q99640 1-499)
Description: Myt1 kinase binding assay (LanthaScreen Eu Kinase Binding Assay). The conditions noted are these: 3 nM tracer 178, 2.5 nM PMYT-1, 1 nM Eu-labeled antibody; read-out: Myt1 kinase Binding IC50. The gist of the method:
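Compound binding to Myt1 kinase was assessed using the LanthaScreen Eu Kinase Binding Assay. This europium-based binding format was applied to quantify how strongly each compound bound to the Myt1 enzyme, and the binding affinity was reported for each compound as an IC50 value.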

The next experiment concerns ACHN cells. Description: Cell Titer Glo viability assay, ACHN cells. In kind it is cell-based. The note with it: Homo sapiens, 144 h, absolute EC50. The gist of the method: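 Cells grown in MEM with 10% FCS were seeded at 500 (A427), 400 (ACHN) or 250 (DAOY) per well and treated the next day with compound at 17 to 10 000 nM. Viability relative to untreated control was read at 144 h by CellTiter-Glo 2.0.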

Experiment [3] concerns the target T3, recombinant human Wee1A kinase (Homo sapiens, UniProt P30291).
T3 construct: full length Wee1 kinase was expressed by baculovirus in insect cells; purchased Invitrogen PV3817; host or cells: insect cells (baculovirus)
Kind of experiment: Wee1A kinase binding assay (LanthaScreen Eu time-resolved FRET). The note with it: 30 nM tracer 178, 5 nM Wee1A kinase, 2 nM Eu-labeled antibody; 60 minutes at room temperature; read-out: Wee1A kinase Binding IC50. In short, it runs like this:
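Full-length, baculovirus-expressed GST-tagged Wee1A (5 nM) was mixed with 2 nM Eu-anti-GST antibody, 30 nM kinase tracer 178 and compound (1% DMSO). Buffer was 50 mM HEPES pH 7.5, 10 mM MgCl2, 1 mM EGTA, 0.01% Brij-35, incubated 60 min at room temperature. TR-FRET 665/615 nm emission ratios from duplicates were curve-fitted.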
(In general: Time-resolved FRET reads energy transfer from a long-lived donor to a nearby acceptor.)

The target in experiment [4] is T4, Wee1A kinase (CDK1 Tyr15 phosphorylation in ACHN renal cell carcinoma cells) (Homo sapiens, UniProt P30291).
T4 construct: pCDK1 Tyr15 immunofluorescence read-out
Kind of experiment: High-content imaging of pCdk1 Y15, Wee1A kinase target engagement in ACHN cells. It is filed as cell-based. The note with it: 4 h treatment, nuclear positivity for pCdk1 Y15 vs DMSO control, read-out: CDK1 Tyr15 Phosphorylation EC50. In short, it runs like this: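 EC50 values come from the per-well fraction of cells with nuclear pCdk1 Y15 staining, normalised to DMSO control, by automated immunofluorescence imaging. Cells were ACHN renal carcinoma, treated 4 h with compound at 7–5,000 nM or 0.3–200 nM.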

Experiment [5] addresses T5, Myt1 kinase (CDK1 Thr14 phosphorylation in ACHN renal cell carcinoma cells) (Homo sapiens, UniProt Q99640).
T5 construct: pCDK1 Thr14 AlphaLISA read-out
T5 sequence (Q99640 1-499): T1 sequence (Q99640 1-499)
Kind of experiment: AlphaLISA assay, Myt1 kinase target engagement (phospho-CDK1 Thr14) in ACHN cells. The conditions noted are these: ACHN cells (marked *); 4 h treatment. It is filed as cell-based. In short, it runs like this: as §3
(Alpha assays give light when donor and acceptor beads are brought close together.)

T4 sequence (P30291 whole entry): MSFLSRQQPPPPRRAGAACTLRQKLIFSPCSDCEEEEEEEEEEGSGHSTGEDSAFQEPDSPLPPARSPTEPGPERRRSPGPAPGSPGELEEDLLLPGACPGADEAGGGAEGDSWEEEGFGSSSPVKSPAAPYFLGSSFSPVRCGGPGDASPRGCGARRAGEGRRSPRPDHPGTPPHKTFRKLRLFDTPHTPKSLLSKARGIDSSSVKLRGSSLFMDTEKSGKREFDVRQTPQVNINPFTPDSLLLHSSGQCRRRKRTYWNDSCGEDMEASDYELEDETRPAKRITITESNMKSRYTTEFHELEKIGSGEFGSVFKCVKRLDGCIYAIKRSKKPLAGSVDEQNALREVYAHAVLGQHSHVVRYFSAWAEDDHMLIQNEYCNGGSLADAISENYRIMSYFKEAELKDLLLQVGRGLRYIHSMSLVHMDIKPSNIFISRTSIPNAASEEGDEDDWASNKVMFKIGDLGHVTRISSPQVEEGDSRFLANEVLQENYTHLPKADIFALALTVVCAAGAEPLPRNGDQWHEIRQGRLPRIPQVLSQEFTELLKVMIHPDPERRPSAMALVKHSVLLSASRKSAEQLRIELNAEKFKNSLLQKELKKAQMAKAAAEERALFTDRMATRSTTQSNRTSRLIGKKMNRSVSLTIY
T3 sequence (P30291 whole entry): as above

On to `C=CCn1c(=O)c2cnc(Nc3ccc4c(cnn4C)c3)nc2n1-c1cccc(OC2CCN(C)CC2)n1` [Compound 109, 2-allyl-6-(1-methyl-1H-indazol-5-ylamino)-1-[6-(1-methyl-4-piperidyloxy)-2-pyridyl]-1,2-dihydro-3H-1,2,5,7-tetraazainden-3-one], for which the EC50 is no more than 100 nM in the experiment with A427 cells; no more than 100 nM in the experiment with DAOY cells; less than 200 nM in experiment [1]; no more than 100 nM with ACHN cells; less than 100 nM in experiment [4]. In addition, the IC50 in experiment [2] is less than 20 nM; in experiment [3] it was less than 10 nM.

As for `CCn1c(=O)c2cnc(Nc3ccc4c(cnn4C)c3)nc2n1-c1cccc(OC2CCN(C)CC2)n1` [Compound 114, 2-ethyl-6-(1-methyl-1H-indazol-5-ylamino)-1-[6-(1-methyl-4-piperidyloxy)-2-pyridyl]-1,2-dihydro-3H-1,2,5,7-tetraazainden-3-one], the EC50 in experiment [5] was 500 to 1000 nM; with A427 cells it was 100 to 500 nM; in the experiment on DAOY cells, no more than 100 nM; in the experiment on ACHN cells, no more than 100 nM; in experiment [4], less than 100 nM. Also, the IC50 is 20 to 100 nM in experiment [2] and less than 10 nM in experiment [3].

For `C=CCn1c(=O)c2cnc(Nc3cnn(C)c3)nc2n1-c1cccc(OC2CCN(C)CC2)n1` [Compound 137, 2-allyl-1-[6-(1-methyl-4-piperidyloxy)-2-pyridyl]-6-(1-methyl-4-pyrazolylamino)-1,2-dihydro-3H-1,2,5,7-tetraazainden-3-one], the EC50 is no more than 100 nM in the experiment with A427 cells, no more than 100 nM in the experiment with ACHN cells and less than 100 nM in experiment [4]. Further, the IC50 in experiment [2] is 20 to 100 nM; in experiment [3] it was less than 10 nM.

Regarding `C=CCn1c(=O)c2cnc(Nc3ccc(Cl)cc3)nc2n1-c1cccc(OC2CCN(C)CC2)n1` [Compound 142, 2-allyl-6-((4-chlorophenyl)amino)-1-(6-((1-methylpiperidin-4-yl)oxy)pyridin-2-yl)-1,2-dihydro-3H-pyrazolo[3,4-d]pyrimidin-3-one], the EC50 was 100 to 500 nM in the experiment with A427 cells; 100 to 500 nM in the experiment on DAOY cells; 200 to 500 nM in experiment [1]; no more than 100 nM in the experiment with ACHN cells; less than 100 nM in experiment [4]. In addition, the IC50 in experiment [2] was less than 20 nM; in experiment [3], less than 10 nM.

As for `C=CCn1c(=O)c2cnc(Nc3cc(C)cc(F)c3)nc2n1-c1cccc(NC2CCN(C)CC2)n1` [Compound 161, 2-allyl-6-(3-fluoro-5-toluidino)-1-[6-(1-methyl-4-piperidylamino)-2-pyridyl]-1,2-dihydro-3H-1,2,5,7-tetraazainden-3-one], the figures for the EC50 (in the experiment on A427 cells; in the experiment on ACHN cells; in experiment [4]) were 100 to 500 nM, no more than 100 nM and less than 100 nM, respectively. The IC50 in experiment [2] was 100 to 500 nM; in experiment [3], less than 10 nM.

As to `C=CCn1c(=O)c2cnc(Nc3ccc4c(ccn4C)c3)nc2n1-c1cccc(OC2CCN(C)CC2)n1` [Compound 186, 2-allyl-6-((1-methyl-1H-indol-5-yl)amino)-1-(6-((1-methylpiperidin-4-yl)oxy)pyridin-2-yl)-1,2-dihydro-3H-pyrazolo[3,4-d]pyrimidin-3-one], the EC50 is 200 to 500 nM in experiment [5], no more than 100 nM in the experiment on DAOY cells, no more than 100 nM with ACHN cells and less than 100 nM in experiment [4]. The IC50 in experiment [2] is 20 to 100 nM; in experiment [3], less than 10 nM.

For the compound `C=CCn1c(=O)c2cnc(Nc3ccc4c(c3)ncn4C)nc2n1-c1cccc(OC2CCN(C)CC2)n1` [Compound 211, 2-allyl-6-(1-methyl-1H-1,3-benzimidazol-5-ylamino)-1-[6-(1-methyl-4-piperidyloxy)-2-pyridyl]-1,2-dihydro-3H-1,2,5,7-tetraazainden-3-one], the EC50 in the experiment on A427 cells was no more than 100 nM; with DAOY cells, no more than 100 nM; in experiment [1], less than 200 nM; with ACHN cells, no more than 100 nM; in experiment [4] it was less than 100 nM. Moreover, the IC50 in experiment [2] was 20 to 100 nM; in experiment [3] it was less than 10 nM.

For `C=CCn1c(=O)c2cnc(Nc3ccc(OCCF)cc3)nc2n1-c1cccc(OC2CCNCC2)n1` [Compound 233, 2-allyl-6-((4-(2-fluoroethoxy)phenyl)amino)-1-(6-(piperidin-4-yloxy)pyridin-2-yl)-1,2-dihydro-3H-pyrazolo[3,4-d]pyrimidin-3-one], the EC50 with A427 cells was no more than 100 nM; in the experiment on DAOY cells it was no more than 100 nM; in experiment [1], 200 to 500 nM; in the experiment with ACHN cells, no more than 100 nM; in experiment [4], less than 100 nM. In addition, the IC50 in experiment [2] is 20 to 100 nM; in experiment [3] it was less than 10 nM.

As to `C=CCn1c(=O)c2cnc(Nc3ccc(OCCF)cc3)nc2n1-c1cccc(OC2CCN(C)CC2)n1` [Compound 234, 2-allyl-6-((4-(2-fluoroethoxy)phenyl)amino)-1-(6-((1-methylpiperidin-4-yl)oxy)pyridin-2-yl)-1,2-dihydro-3H-pyrazolo[3,4-d]pyrimidin-3-one], the EC50 in the experiment on A427 cells is no more than 100 nM; with DAOY cells, no more than 100 nM; in experiment [1], less than 200 nM; in the experiment with ACHN cells, no more than 100 nM; in experiment [4], less than 100 nM. The IC50 in experiment [2] was 20 to 100 nM; in experiment [3], less than 10 nM.

Consider `C=CCn1c(=O)c2cnc(Nc3ccc(OCC(F)(F)F)cc3)nc2n1-c1cccc(OC2CCN(C)CC2)n1` [Compound 291, 2-allyl-1-[6-(1-methyl-4-piperidyloxy)-2-pyridyl]-6-[p-(2,2,2-trifluoroethoxy)phenylamino]-1,2-dihydro-3H-1,2,5,7-tetraazainden-3-one], for which the EC50 with A427 cells was no more than 100 nM; with DAOY cells, no more than 100 nM; in experiment [1], 200 to 500 nM; with ACHN cells, no more than 100 nM; in experiment [4] it was less than 100 nM. Further, the IC50 in experiment [2] was 20 to 100 nM; in experiment [3], less than 10 nM.

For the compound `C=CCn1c(=O)c2cnc(Nc3cccc(C)c3)nc2n1-c1cccc(OC2CCNCC2)n1` [Compound 296, 2-allyl-1-(6-(piperidin-4-yloxy)pyridin-2-yl)-6-(m-tolylamino)-1,2-dihydro-3H-pyrazolo[3,4-d]pyrimidin-3-one], the EC50 with A427 cells is no more than 100 nM; in the experiment with DAOY cells, no more than 100 nM; in experiment [1], 200 to 500 nM; in the experiment with ACHN cells it was no more than 100 nM; in experiment [4], less than 100 nM. For the same compound, the IC50 in experiment [2] is 20 to 100 nM; in experiment [3], less than 10 nM.

What is called EC50 is the concentration needed to bring the measured effect to its halfway point. By IC50 is commonly meant the concentration that gives 50% inhibition.

For the origin of these results see patent US20260364080A1, “PYRAZOLO-PYRIMIDINONE COMPOUNDS FOR USE IN METHODS OF INHIBITING WEE1 A KINASE” (Acrivon Therapeutics, Inc., priority 2023, published 2026).
